≈ marks a conversion by molar mass, not a printed value.
Key:
[1] = system: Bordetella bronchiaseptica OKM-1; experiment: in vitro antimicrobial activity (MIC), agar dilution, Part 2; format: cell-based; conditions: Bordetella, OKM1, Bordetella bronchiaseptica OKM-1, Pig; read-out: MIC
Method: (§1) Test microorganisms listed in Table 2 were cultured overnight in heart infusion nutrient broth (produced by Eiken Chemical Co., Ltd.). Culture broth containing about 10⁸/ml cells was diluted to a volume of 100 times. An aliquot (about 0.05 ml) of the diluted broth was inoculated onto a Mueller Hinton agar plate (produced by Eiken Chemical Co., Ltd.) to which Compound No. 1 was added in a prescribed concentration. […]
(§2) MIC of Compounds (1)-(8) against various pathogenic bacteria derived from animals was determined in the same manner as in Example 1.

Escherichia coli 139 = experiment: as above; format: cell-based; conditions: Escherichia coli 139, Cow; read-out: MIC
Method: as §1, §2

Escherichia coli 881 = experiment: as above; format: cell-based; conditions: Escherichia coli, 881, Escherichia coli 881, Pig; read-out: MIC
Method: as §1, §2

Escherichia coli S6W = experiment: as above; format: cell-based; conditions: Escherichia coli, S6W, Escherichia coli S6W, Chicken; read-out: MIC
Method: as §1, §2

[2] = system: Pasteurella multocida DB-12-1; experiment: as above; format: cell-based; conditions: DB121; Pasteurella multocida DB-12-1, Pig; read-out: MIC
Method: as §1, §2

[3] = system: Salmonella typhimurium 103; experiment: as above; format: cell-based; conditions: Salmonella enterica; Salmonella typhimurium 103, Chicken; read-out: MIC
Method: as §1, §2

[4] = system: Salmonella typhimurium 569; experiment: as above; format: cell-based; conditions: Salmonella enterica, TYPHIMURIUM, Salmonella typhimurium 569, Pig; read-out: MIC
Method: as §1, §2

[5] = system: Staphylococcus aureus Yamaguchi 6; experiment: as above; format: cell-based; conditions: Staphylococcus aureus Yamaguchi 6, Chicken; read-out: MIC
Method: as §1, §2

[6] = system: Mycoplasma gallisepticum Strain 2004; experiment: in vitro antimicrobial activity (MIC) in Frey liquid medium; format: cell-based; conditions: Mycoplasmoides gallisepticum, STRAIN2004; Mycoplasma gallisepticum Strain 2004, from chicken; Frey liquid medium, 37°C, 3-5 days; read-out: MIC
Method: (§3) Various test strains of Mycoplasma gallisepticum derived from chicken were cultured in a Frey liquid medium for Mycoplasma for 3 days. The culture broth containing about 10⁸/ml cells was diluted to a volume of 100 times. The diluted broth was inoculated into Frey liquid media for Mycoplasma to which the compounds of this invention were added at prescribed concentrations. The cells were incubated at 37°C for 3-5 days while daily observing the color of the media. Among the culture broths maintaining yellow color at the time when the control to which no test compound was added turned red, the concentration of the broth having the minimum concentration was taken as the MIC of the compound.

[7] = system: Mycoplasma gallisepticum Strain 2012; experiment: as above; format: cell-based; conditions: Mycoplasmoides gallisepticum, STRAIN2012; Mycoplasma gallisepticum Strain 2012, from chicken; Frey liquid medium, 37°C, 3-5 days; read-out: MIC
Method: as §3

[8] = system: Mycoplasma gallisepticum Strain DP-1047; experiment: as above; format: cell-based; conditions: Mycoplasmoides gallisepticum; Mycoplasma gallisepticum Strain DP-1047, from chicken; Frey liquid medium, 37°C, 3-5 days; read-out: MIC
Method: as §3

[9] = system: Mycoplasma gallisepticum Strain T-2; experiment: as above; format: cell-based; conditions: Mycoplasmoides gallisepticum; Mycoplasma gallisepticum Strain T-2, from chicken; Frey liquid medium, 37°C, 3-5 days; read-out: MIC
Method: as §3

[10] = system: Mycoplasma gallisepticum Strain T-7; experiment: as above; format: cell-based; conditions: Mycoplasmoides gallisepticum, Mycoplasma gallisepticum Strain T-7, from chicken, 37°C, 3-5 days
Method: as §3

Mycoplasma gallisepticum = experiment: Effect of oral administration on chicken inoculated with Mycoplasma gallisepticum; format: in vivo; conditions: for Chickens developing disease in air sac (naked eye observation) / No. of dead chickens: 5 tested chickens
Method: Mycoplasma gallisepticum cells collected from chickens having respiratory Mycoplasma infection were cultured for 3 days in a Frey liquid media for Mycoplasma. 0.2 ml of this culture broth was injected into the trachea of chickens of an average body weight of 80 g using a 1 ml disposable injection needle. Beginning from the next day following the inoculation, feeds to which Compound (1) had been added in the amount of 100 ppm, 75 ppm, or 50 ppm were freely given to the chickens for 5 days. Following the administration of Compound (1) the chickens were given feed containing no drug for a further 5 days. The surviving chickens were sacrificed and dissected. After examination of the degree of disease in the air sac, Mycoplasma gallisepticum in the infraorbital sinus, trachea, lung, and air sac were determined. […] TABLE 6 […]

[11] = Acute toxicity test, intravenous injection; format: in vivo
Method: Representative test compounds, Compounds (2) and (3), were intravenously injected to mice. No fatality occurred at a dose of 200 mg/kg (10 mice/group), for Compound (2), and a dose of 200 mg/kg (6 mice/group), for Compound (3). From the results, the LD₅₀ values of the compounds are considered to be greater than 200 mg/kg.

Work on `CCCN1CCN(c2c(F)cc3c(=O)c(C(=O)O)cn4c3c2OCC4C)CC1` (racemic) [Compound (3), 3(RS)-9-fluoro-2,3-dihydro-3-methyl-10-(4-n-propyl-1-piperazinyl)-7-oxo-7H-pyrido[1,2,3-de] [1,4]benzoxazine-6-carboxylic acid] yielded an MIC [1] of 0.78 µg/mL (≈ 2 µM), an MIC (Escherichia coli 139) of 0.39 µg/mL (≈ 1 µM) and an MIC (Escherichia coli 881) of 0.2 µg/mL (≈ 0.514 µM). It also gave an MIC (Escherichia coli S6W) of 0.39 µg/mL (≈ 1 µM), an MIC [2] of 0.1 µg/mL (≈ 0.257 µM) and an MIC [3] of 0.78 µg/mL (≈ 2 µM). The MIC [4] was 0.39 µg/mL (≈ 1 µM), the MIC [5] was 0.78 µg/mL (≈ 2 µM) and the MIC [6] was 0.025 µg/mL (≈ 0.0642 µM). The MIC [7] was 0.05 µg/mL (≈ 0.128 µM), the MIC [8] was 0.2 µg/mL (≈ 0.514 µM) and the MIC [9] was 0.2 µg/mL (≈ 0.514 µM). For the same compound, the MIC [10] was 0.39 µg/mL (≈ 1 µM), the “Mycoplasma gallisepticum collected in Air sac” value (Mycoplasma gallisepticum; 50 ppm in feed for 5 days) was 3.24 Logarithmic number of collected cells per 1 g of tissue and the “Mycoplasma gallisepticum collected in Infraorbital sinus” value (Mycoplasma gallisepticum; 50 ppm in feed for 5 days) was 0/5. The “Mycoplasma gallisepticum collected in Lung” value (Mycoplasma gallisepticum; 50 ppm in feed for 5 days) was 2.38 Logarithmic number of collected cells per 1 g of tissue, the “Mycoplasma gallisepticum collected in Trachea” value (Mycoplasma gallisepticum; 50 ppm in feed for 5 days) was 0 Logarithmic number of collected cells per 1 g of tissue and the “Chickens developing disease in air sac (naked eye observation)” value (from here on “Chickens developing disease in air sac”) (Mycoplasma gallisepticum; 50 ppm in feed for 5 days) was 0. The “No. of dead chickens” value (Mycoplasma gallisepticum; 50 ppm in feed for 5 days) was 0, the “Mycoplasma gallisepticum collected in Air sac” value (Mycoplasma gallisepticum; 75 ppm in feed for 5 days) was 0 Logarithmic number of collected cells per 1 g of tissue and the “Mycoplasma gallisepticum collected in Infraorbital sinus” value (Mycoplasma gallisepticum; 75 ppm in feed for 5 days) was 0/5. For the same compound, the “Mycoplasma gallisepticum collected in Lung” value (Mycoplasma gallisepticum; 75 ppm in feed for 5 days) was 0 Logarithmic number of collected cells per 1 g of tissue, the “Mycoplasma gallisepticum collected in Trachea” value (Mycoplasma gallisepticum; 75 ppm in feed for 5 days) was 0 Logarithmic number of collected cells per 1 g of tissue and the “Chickens developing disease in air sac” value (Mycoplasma gallisepticum; 75 ppm in feed for 5 days) was 0. The “No. of dead chickens” value (Mycoplasma gallisepticum; 75 ppm in feed for 5 days) was 0, the “Mycoplasma gallisepticum collected in Air sac” value (Mycoplasma gallisepticum; 100 ppm in feed for 5 days) was 0 Logarithmic number of collected cells per 1 g of tissue and the “Mycoplasma gallisepticum collected in Infraorbital sinus” value (Mycoplasma gallisepticum; 100 ppm in feed for 5 days) was 0/5. For the same compound, the “Mycoplasma gallisepticum collected in Lung” value (Mycoplasma gallisepticum; 100 ppm in feed for 5 days) was 0 Logarithmic number of collected cells per 1 g of tissue, the “Mycoplasma gallisepticum collected in Trachea” value (Mycoplasma gallisepticum; 100 ppm in feed for 5 days) was 0 Logarithmic number of collected cells per 1 g of tissue and the “Chickens developing disease in air sac” value (Mycoplasma gallisepticum; 100 ppm in feed for 5 days) was 0. The “No. of dead chickens” value (Mycoplasma gallisepticum; 100 ppm in feed for 5 days) was 0, the fatality ([11]; mice, intravenously injected, dose of 200 mg/kg) was “No fatality” and the LD50 ([11]; mouse, in vivo, iv) was > 200 mg/kg.
